Data taken from ChEMBL document CHEMBL1141649, “Inhaled adenosine A(2A) receptor agonists for the treatment of chronic obstructive pulmonary disease” (Bioorg Med Chem Lett, 2008).
Blank lines part the entries; values can stand above or below the compound they belong to. The source made the active and inactive calls. The calls are words filed in the database; no cut-off is given here.

What was measured:
Adenosine receptor A2a = Adenosine receptor A2a (Homo sapiens, UniProt P29274); assay: Agonist activity at adenosine A2A receptor; format: functional
[1] = Intrinsic clearance in human liver microsomes; format: ADME, Microsome
[2] = Clearance in rat at 1 mg/kg, iv; format: ADME, organism-based; design: dose 1 mg/kg, route intravenous; settings: in vivo
Rattus norvegicus = assay: Unbound clearance in rat at 1 mg/kg, iv; format: ADME, organism-based; design: dose 1 mg/kg, route intravenous; settings: in vivo
[3] = Membrane permeability by PAMPA assay; format: ADME; settings: read-out: permeability
[4] = Distribution coefficient, log D at pH 7.4; format: physicochemical; settings: octanol/water
[5] = Cmax in intratracheally dosed rat at 1 mg/kg; format: ADME, organism-based; design: dose 1 mg/kg, route endotracheal; settings: in vivo, inhaled or intranasal
Neutrophil = assay: Inhibition of […]-induced super oxide production in human neutrophils; format: functional, cell-based
Cavia porcellus [6] = species: Cavia porcellus; assay: Inhibition of capsaicin-induced bronchoconstriction in guinea pig after 15 mins; format: functional, organism-based
Cavia porcellus [7] = species: Cavia porcellus; assay: Toxicity assessed as reduction in diastolic blood pressure in guinea pig; format: organism-based; design: scale not given: the % may be the effect or the level left; settings: in vivo

Chain of Adenosine receptor A2a (P29274 whole entry): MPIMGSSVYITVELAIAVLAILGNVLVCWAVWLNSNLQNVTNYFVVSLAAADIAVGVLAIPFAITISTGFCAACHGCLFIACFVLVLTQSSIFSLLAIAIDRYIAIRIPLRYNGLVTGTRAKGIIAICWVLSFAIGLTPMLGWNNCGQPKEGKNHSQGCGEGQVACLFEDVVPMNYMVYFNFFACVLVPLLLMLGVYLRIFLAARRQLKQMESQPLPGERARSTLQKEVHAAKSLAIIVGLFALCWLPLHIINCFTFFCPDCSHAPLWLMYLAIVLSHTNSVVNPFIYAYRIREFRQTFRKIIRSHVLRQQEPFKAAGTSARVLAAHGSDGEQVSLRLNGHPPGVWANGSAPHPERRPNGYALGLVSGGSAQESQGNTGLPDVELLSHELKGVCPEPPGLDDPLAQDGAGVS

Structure (SMILES): COC[C@H]1O[C@@H](n2cnc3c(NCC(c4ccccc4)c4ccccc4)nc(CNC4CCCCC4)nc32)[C@H](O)[C@@H]1O
IC50 (Adenosine receptor A2a): 100 nM

Structure (SMILES): CCNC(=O)[C@H]1O[C@@H](n2cnc3c(N)nc(NCCc4ccc(CCC(=O)O)cc4)nc32)[C@H](O)[C@@H]1O [CGS-21680]
microsomal CLint [1]: < 8 µL/min/mg
IC50 (Neutrophil): 47 nM
Activity (Cavia porcellus [6]): Active
Activity (Cavia porcellus [7]): 30%
clearance [2]: 14 mL/min/kg
CL (Rattus norvegicus): 82 mL/min/kg
Papp [3]: < 0.2 ×10⁻⁶ cm/s
logD [4]: -0.15
Cmax [5]: 271 nM

Structure (SMILES): CCNC(=O)[C@H]1O[C@@H](n2cnc3c(NCC(c4ccccc4)c4ccccc4)nc(NCCC4CCCCC4)nc32)[C@H](O)[C@@H]1O
IC50 (Adenosine receptor A2a): 1000 nM

Structure (SMILES): COC[C@H]1O[C@@H](n2cnc3c(NCC(c4ccccc4)c4ccccc4)nc(CCNC4CCCCC4)nc32)[C@H](O)[C@@H]1O
IC50 (Adenosine receptor A2a): 28 nM

Structure (SMILES): COC[C@H]1O[C@@H](n2cnc3c(NCC(c4ccccc4)c4ccccc4)nc(NCCC4CCCCC4)nc32)[C@H](O)[C@@H]1O
IC50 (Adenosine receptor A2a): 1010 nM

Structure (SMILES): O=C(NCCN1CCCCC1)c1nc(NCC(c2ccccc2)c2ccccc2)c2ncn([C@@H]3O[C@H](CO)[C@@H](O)[C@H]3O)c2n1
IC50 (Adenosine receptor A2a): 65 nM
microsomal CLint [1]: 62.6 µL/min/mg
clearance [2]: 48 mL/min/kg
CL (Rattus norvegicus): 755 mL/min/kg
Papp [3]: 0.2 ×10⁻⁶ cm/s
logD [4]: 2.1
Cmax [5]: 20 nM

Structure (SMILES): COC[C@H]1O[C@@H](n2cnc3c(NCC(c4ccccc4)c4ccccc4)nc(NCCN4CCCCC4)nc32)[C@H](O)[C@@H]1O
IC50 (Adenosine receptor A2a): 60 nM

Now from value to compound:

IC50 (Adenosine receptor A2a): 11 nM
Structure (SMILES): CCNC(=O)[C@H]1O[C@@H](n2cnc3c(NCC(c4ccccc4)c4ccccc4)nc(CNC(=O)NCCN(C(C)C)C(C)C)nc32)[C@H](O)[C@@H]1O

IC50 (Adenosine receptor A2a): 33 nM
Structure (SMILES): CCNC(=O)[C@H]1O[C@@H](n2cnc3c(NCC(c4ccccc4)c4ccccc4)nc(CNC(=O)NCCN(C4CCCCC4)C(C)(C)C)nc32)[C@H](O)[C@@H]1O

IC50 (Adenosine receptor A2a): 9 nM
Structure (SMILES): CCNC(=O)[C@H]1O[C@@H](n2cnc3c(NCC(c4ccccc4)c4ccccc4)nc(C(=O)NCCN4CCCCC4)nc32)[C@H](O)[C@@H]1O

IC50 (Adenosine receptor A2a): 6 nM
microsomal CLint [1]: 135 µL/min/mg
clearance [2]: 45 mL/min/kg
CL (Rattus norvegicus): 3500 mL/min/kg
Papp [3]: < 0.7 ×10⁻⁶ cm/s
logD [4]: 2
Cmax [5]: 1.8 nM
Structure (SMILES): CCNC(=O)[C@H]1O[C@@H](n2cnc3c(NCC(c4ccccc4)c4ccccc4)nc(CNC(=O)NCCN(C(C)C)C4CCCC4)nc32)[C@H](O)[C@@H]1O

IC50 (Adenosine receptor A2a): 17 nM
Structure (SMILES): CCNC(=O)[C@H]1O[C@@H](n2cnc3c(NCC(c4ccccc4)c4ccccc4)nc(CNC(=O)NCCN4CCCCC4)nc32)[C@H](O)[C@@H]1O
